# Test results from US8273852B2, “Medium chain length polyhydroxyalkanoate polymer and method of making same” (Queen's University at Kingston, priority 2009, dated 2012).
# How the values were obtained:
# β-oxidation pathway [1] = assay: Continuous fermentation, cofeeding of dodecanoic acid and glucose, increasing acrylic acid; format: cell-based, Pseudomonas putida KT2440
# Procedure: (§1) Continuous fermentations were carried out in a 1.5 L stirred tank bioreactor (Bioflo IIc, New Brunswick Scientific, N.J., USA) with a working volume of 1.1 L. The fermentor was operated at 28.5±1° C. and the pH was automatically controlled at 6.85±0.05 using 2 N potassium hydroxide solution. The dissolved oxygen was monitored with an Ingold polarographic probe (available from Mettler-Toledo Ingold Inc., Bedford, Mass., USA) and maintained no lower than 30% air saturation with an aeration rate of 0.8 vvm (void volumes per minute) and an agitation speed up to 900 rpm. […] All other aqueous medium was mixed and fed together. The dilution rate of all continuous fermentations was controlled at […] by fixing the working volume and a constant aqueous medium feeding rate.
# (§2) During shake flask, batch, fed-batch, or continuous cultivations, fermentation broth samples were taken. Known amounts of such broths were centrifuged to obtain the medium's supernatant and concentrated biomass. The biomasses were washed with distilled water, centrifuged again, re-suspended, frozen, and lyophilized to obtain dried biomass. The supernatant was used to analyze carbon source, inhibitor, and nutrient concentration. The dried biomass was used to obtain the cell concentration, cellular PHA content and composition.
# (§3) Dried samples were weighed to obtain dry biomass amounts. PHA content and composition were determined by gas chromatographic method as described below (Sun, Z., et al. (2007). Appl. Microbiol. Biotechnol., 74:69). […]
# (§4) Known amount of dried biomass, or purified MCL-PHA, or MCL-PHA standard with known composition and elution time of each of its components, were reacted in 2 mL chloroform plus 1 mL methanol containing 15% (v/v) concentrated sulfuric acid as acidifying agent and 0.2% (w/v) benzoic acid as internal standard, at 100° C. for 4 hours. […] Methyl-3-hydroxyalkanoate was identified and its molar amount was calculated by comparing peak area to the corresponding peak of known methyl-3-hydroxyalkanoate generated from known MCL-PHA standard, which was characterized by NMR and GC/MS. […]
# β-oxidation pathway [2] = assay: Continuous fermentation, cofeeding of nonanoic acid and glucose, increasing acrylic acid; format: cell-based, Pseudomonas putida KT2440; conditions: inhibitor concentration increased from 0 to 0.15 g/L; value at highest concentration
# Procedure: (§5) Continuous fermentations were carried out in a 1.5 L stirred tank bioreactor (Bioflo IIc, New Brunswick Scientific, N.J., USA) with a working volume of 1.1 L. The fermentor was operated at 28.5±1° C. and the pH was automatically controlled at 6.85±0.05 using 2 N potassium hydroxide solution. The dissolved oxygen was monitored with an Ingold polarographic probe (available from Mettler-Toledo Ingold Inc., Bedford, Mass., USA) and maintained no lower than 30% air saturation with an aeration rate of 0.8 vvm (void volumes per minute) and an agitation speed up to 900 rpm. Nonanoic acid was fed separately at controlled speed by a peristaltic nutrient pump on the bioreactor. All other aqueous medium was mixed and fed together. The dilution rate of all continuous fermentations was controlled at […] by fixing the working volume and a constant aqueous medium feeding rate.
# (§6) During shake flask, batch, fed-batch, or continuous cultivations, fermentation broth samples were taken. Known amounts of such broths were centrifuged to obtain the medium's supernatant and concentrated biomass. […]
# as §3
# β-oxidation pathway [3] = assay: Continuous fermentation, nonanoic acid as sole carbon source, increasing acrylic acid; format: cell-based, Pseudomonas putida KT2440
# Procedure: as §5
# as §2, with “The dried biomass was used to obtain the cell concentration, cellular PHA content and composition.” left out
# as §3, §4
# [4] = tested on: Pseudomonas putida KT2440; assay: Shake flask growth with acrylic acid, absorbance at 650 nm; format: cell-based; conditions: shake flasks
# Procedure: A basic glucose-only shake flask medium was a 100 mL liquid medium in a 500 mL Erlenmeyer flask. The medium comprised (g L^−1): (NH4)2SO4 (4.70), MgSO4.7H2O (0.80), Na2HPO4.7H2O (12.0), KH2PO4 (2.70), glucose (9.0), nutrient broth (1.0).
# The effect of acrylic acid on cell growth was determined using Pseudomonas putida KT2440 (ATCC 47054). Pseudonomas putida KT2440 (ATCC 47054) was maintained on nutrient agar plates at 4° C. before inoculation. The toxicity of a β-oxidation inhibitor, acrylic acid, to the growth of Pseudomonas putida KT2440 was determined by shake flask experiment. The cultivation conditions were 28° C. in a New Brunswick Shaker-Incubator at 200 rpm. The medium used was the basic glucose-only shake flask medium described above, plus appropriate amount of acrylic acid.
# 500 mL Erlenmeyer flasks were used with each containing 100 mL of medium. In addition to the basic medium described above, increasing concentrations of acrylic acid (AA) at 0, 0.2, 0.4, 0.8, 2.0 g/L were prepared in each flask. The first set of such flasks was cultured for 12 h and the second set of such flasks was cultured for 24 h. After the specified culturing time, a sample was taken to measure the absorbance at 650 nm in the spectrophotometer.
# β-oxidation pathway [5] = assay: Continuous fermentation, cofeeding of octanoic acid and glucose, increasing acrylic acid; format: cell-based, Pseudomonas putida KT2440; conditions: inflow acrylic acid 0.2 g/L
# Procedure: as §1
# as §6, with “biomass. The biomasses were washed with distilled water, centrifuged again, re-suspended, frozen, and lyophilized to obtain dried biomass.” for “biomass.”
# as §3
# β-oxidation pathway [6] = assay: Fed-batch fermentation, cofeeding of nonanoic acid, glucose and acrylic acid; format: cell-based, Pseudomonas putida KT2440; conditions: nonanoic acid:glucose:acrylic acid 1.25:1:0.03 (w/w/w); by GC; throughout 32 hours fermentation
# Procedure: Fed-batch fermentations were conducted in a 5 L stirred tank bioreactor with 3 L working volume (Minifors, INFORS HT, Bottmingen, Switzerland). The specific growth rate was controlled at 0.25 h^−1 or 0.15 h^−1 by exponentially feeding the carbon sources as growth-limiting nutrients. β-oxidation inhibitor was added with the glucose feeding solution at a fixed mass as specified in the related examples. […]
# as §3, §4
smiles,measurement,setting,value
C=CC(=O)O [acrylic acid],mole percentage of C12,β-oxidation pathway [1]; inflow acrylic acid 0.2 g/L (FIG. 10B),60 mol %
same,molar C12 content,β-oxidation pathway [1]; inlet acrylic acid 0.1 g L^−1,34.5%
same,molar C12 content,β-oxidation pathway [1]; inlet acrylic acid 0.2 g L^−1,59%
same,intracellular PHN content,β-oxidation pathway [2],~64%
same,mole percentage of C9,β-oxidation pathway [2],96 mol %
same,PHA content,"β-oxidation pathway [3]; acrylic acid 0.2 g L^−1, nonanoic acid only carbon source",very little PHA content
same,molar C9 fraction of the PHA produced,"β-oxidation pathway [3]; at increased inhibitor concentration, nonanoic acid only, maximum reached",about 90%
same,acrylic acid concentration that affected monomeric composition,"β-oxidation pathway [3]; inflow concentration, nonanoic acid only, steady state",0.02 g/L
same,reduction of Absorbance at λ=650 nm,"[4]; acrylic acid 0.2 g L^−1, 12 h and 24 h cultures, glucose medium",two fold
same,cell growth,[4]; acrylic acid greater than 0.4 g L^−1,either weak growth or no growth
same,mole percentage of C8,β-oxidation pathway [5],98 mol %
same,"monomeric composition, C9 (3-OH-nonanoate)",β-oxidation pathway [6],87.8±0.8 mol %
